How the values were obtained:
Assay type in all cases: physicochemical
[1] = Storage stability of 40% clothianidin SC in 10-34-0 with wetting agent Witcolate D-510 (Example 5); conditions: 10-34-0 with Witcolate D-510
Description: The test samples were prepared by adding 60 grams of 10-34-0 fertilizer (from Plant Food) to a bottle. Then various amounts of Witcolate D-510 (2-ethylhexyl sulfate) were added to the 10-34-0 fertilizer and mixed well. Finally, 40 grams of clothianidin (technical grade) was added to the mixture and mixed well by shaking by hand.

[2] = Stability of 50% clothianidin in 50% URAN 32 fertilizer (Example 6)
Description: 0.5 g Witcolate D-510 surfactant was added into 100 g URAN 32 fertilizer solution (50 wt % URAN 32 in water). […] Then 100 g clothianidin was added to the resulting solution and mixed well by hand-shaking. This sample was stable and had about 10% top clear with a smooth bottom suspension after 2 weeks at 40° C.
(§1) In other experiments, 0.3% of a pH adjusting agent (40 wt % Citric acid), was included in the SC sample (homogenized sample) and no noticeable effect was observed on stability. Viscosity measurements were made with a Brookfield viscometer at various speeds (rpm) at room temperature with a #64 spindle. This sample was very viscous but it was highly shear-thinning.

[3] = Brookfield viscosity of 50% clothianidin in 50% URAN 32; conditions: #64 spindle
Excerpt: as §1

[4] = Suspension of clothianidin in 10-34-0 aqueous fertilizer, effect of concentration on stability (Example 3); conditions: review of table 4
Description: Various amounts of clothianidin were added to 10-34-0 fertilizer. Samples were shaken by hand until homogeneous.

With `CN/C(=N\[N+](=O)[O-])NCc1cnc(Cl)s1` [clothianidin] the “clothianidin concentration above which the SC was difficult to prepare” value [1] was “greater than 40 wt %”, the stability ([2]; 100 g clothianidin, 100 g URAN 32 fertilizer solution, 0.5 g Witcolate D-510, hand-shaking) was “stable” and the “behaviour of the solid in URAN 32” value ([2]; URAN 32, all concentrations) was “sank to the bottom at all concentrations”. The “clothianidin concentration above which a paste resulted” value ([2]; URAN 32 system) was “higher than 55 wt %”, the separation ([2]; same composition, homogenization method) was “did not show noticeable separation” and the top clear ([2]; same sample, hand-shaking, after 2 weeks at 40° C.) was “about 10%”. The “Viscosity, mPa-s, 24° C.” value ([3]; 1 RPM) was 10200 mPa-s, the “Viscosity, mPa-s, 24° C.” value ([3]; 2 RPM) was 6900 mPa-s and the “Viscosity, mPa-s, 24° C.” value ([3]; 4 RPM) was 3900 mPa-s. The “Viscosity, mPa-s, 24° C.” value ([3]; 10 RPM) was 2300 mPa-s, the “Viscosity, mPa-s, 24° C.” value ([3]; 20 RPM) was 1500 mPa-s and the “Viscosity, mPa-s, 24° C.” value ([3]; 50 RPM) was 1300 mPa-s. The “Viscosity, mPa-s, 24° C.” value ([3]; 100 RPM) was 1200 mPa-s and the “suspension of the powder in 10-34-0” value [4] was “without crystal formation and without coagulation”.

From patent US20180265423A1, “Pesticide Dispersion in Concentrated Aqueous Fertilizer Solution” (priority 2014, published 2018)
